Data published in US20140171433A1, “MULTIPLE MYELOMA TREATMENT” (YM Biosciences Australia Pty Ltd, priority 2011, published 2014).
Entries after “also recorded” stand apart in the source; their conditions may differ. Read-outs that look alike come from different tables or passages of the source.

Key:
Ras/MAPK = conditions: cited from earlier work; for IL-6 induced activation of Ras/MAPK: refs [20, 22]
AKT = conditions: PTEN mutated OPM2 MM cells, ref [30]; cited from earlier work
Cyclin D2 = conditions: two HMCL, ref [22]; cited from earlier work
[1] = test system: HMCL (LP-1, NCI-H929, OPM2, RPMI-8226, ANBL-6, OCI-MY1, U266 and XG-1); experiment: MTS cell proliferation assay on a panel of 8 HMCL; assay type: cell-based, human
Method: (§1) The viability and proliferation of CYT387 treated HMCL and untreated/vehicle controls were determined using various methods as described previously. Proliferation was measured first using Celltiter 96 AQeous one solution cell proliferation assay MTS reagent (Promega) on a panel of 8 HMCL. Cells were cultured at 2.0×10^5 cell/ml in 100 μl fresh media in 96 well plates for 24, 48 and 72 hours with CYT387 (0.1-5 μM). 20 μl of MTS reagent was added for the final 4 hours of treatment and the plates were read at 490 nm using a Fluostar Optima plate reader (BMG Labtech). The viable cell numbers of a panel of 5 HMCL that were treated with CYT387 with and without IL-6 co-treatment was also measured by trypan blue staining and haemocytometer count. The HMCL NCI-H929, OCI-MY1 and U266 were then selected for further analysis. Apoptosis of CYT387 treated cells was assessed by FACS with Annexin-V and propidium iodide (PI) staining. HMCLs were treated for 24 or 72 hours with 1 or 5 μM CYT387 then harvested and washed in Annexin Buffer (0.01 HEPES, 0.14 M NaCl, 2.5 mM CaCl2, pH 7.4) and stained with Annexin-V FITC (Biosource) made up in Annexin Buffer for 30 minutes at room temperature. Unbound antibody was then washed off with Atmexin Buffer and cells were resuspended in Annexin Buffer with 62.5 ng/mi PI (Sigma-Aldrich) and analyzed by FACS.

p-AKT (pS473) = experiment: IL-6 and IGF-1 induced p-AKT, intracellular FACS, OCI-MY1; assay type: cell-based, human; conditions: 2 μM CYT387 cotreatment, 15 minutes
Method: (§2) Activation of the JAK/STAT, PI3K/AKT and Ras/MAPK pathways was investigated using intracellular flow cytometry to measure the phosphorylation of STAT3 at tyrosine 705 (p-STAT3), AKT at serine 473 (p-AKT) and ERK1/2 at threonine 202 and tyrosine 204 (p-ERK). HMCL were stimulated alone with 10 ng/ml IL-6±[…] IGF-1 or stimulated in CC with HS5 stromal cells or primary BMSC with or without CYT387 treatment. For CC HS5 and primary BMSC were seeded into a 24 well plate at 2×10^5 cells/ml and allowed to establish for 4 hours, after which HMCL prestained with CD38 or CD138 FITC (BD) were added. MM cells were stimulated alone (10 ng/ml IL-6 or 5 ng/ml IL-6 and 100 ng/ml IGF-1), or in CC (direct CC with stroma or transwell (TW) CC with stroma) with or without either 60 minutes of CYT387 pretreatment or 15 minutes CYT387 co-treatment. After stimulation±treatment, MM cells were harvested and fixed with 2% paraformaldehyde for 10-30 minutes, washed then permeabilised with methanol overnight. Methanol was washed off and the cells were resuspended in p-STAT3 PE (BD), p-AKT PE (BD) or p-ERK (BD) and stained for 45-60 minutes at room temperature. Unbound antibody was washed off and the cells resuspended in 2% FBS PBS and acquired by FACS.

NCI-H929 cells = experiment: Cell cycle analysis by FACS (PI/RNase); assay type: cell-based, human; conditions: after 24 and 72 hours treatment
Method: (§3) The effect of CYT387 treatment on HMCL cell cycling was measured after 24 and 72 hours. CYT387 (1 or 5 μM) treated and untreated HMCL were harvested, washed in PBS and resuspended in 100 μl PBS. Cells were fixed with 1 ml of cold 70% ethanol while being vortexed. Tubes were stored at −20° C. until analysis. Once all samples were collected tubes were centrifuged at 500×g for 10 minutes, the supernatant was carefully removed and the cells washed in 5 ml PBS. After the final wash cells were resuspended 250-500 μl of PI/RNase staining buffer (BD) and incubated in the dark at room temperature for 15 minutes before being analyzed by FAGS.

[2] = test system: HMCL (NCI-H929, OCI-MY1 and U266); experiment: Cell cycle analysis by FACS (PI/RNase); assay type: cell-based, human
Method: as §3

p-ERK1/2 (pT202/pY204) = experiment: IL-6 and IGF-1 induced p-ERK, intracellular FACS, U266; assay type: cell-based, human; conditions: 2 μM CYT387 cotreatment, 15 minutes
Method: as §2

[3] = test system: HMCL (NCIH929, OCI-MY1 and U266); experiment: Annexin-V/Propidium Iodide FACS apoptosis; assay type: cell-based, human; conditions: Annexin-V/PI; 3 HMCL
Method: as §1

NCI-H929 [4] = experiment: Annexin-V/Propidium Iodide FACS apoptosis; assay type: cell-based; conditions: Homo sapiens, read-out: reduction in viable cells
Method: as §1

[5] = test system: CD38+CD45− primary MM cells; experiment: Apoptosis (Apo 2.7) of ex-vivo primary patient MM cells, single agent and combination; assay type: cell-based, human; conditions: 24 hours, Calcusyn
Source text: Primary MM samples were obtained from Bone Marrow Aspirates from relapsed and refractory MM patients following written informed consent with approval from the Alfred Hospital Research and Ethics Committee and isolated and treated as previously described. Briefly, bone marrow mononuclear cells (BMMC) were isolated with Ficoll-Paque Plus (Amersham Biosciences), washed in PBS and red blood cells were lysed with NH4Cl solution (8.29 g/L ammonium chloride, 0.037 g/L EDTA, 1 g/L potassium bicarbonate). Cells were then washed again in PBS and quantitated by haemocytometer. BMMC samples were then cultured in complete RPMI-1640 media (as above for HMCL) for 24 hours. Subsequently the BMMC were plated at 5×10^5 cells/ml and were treated with CYT387 (5-50 μM) alone or (dependant on cell numbers) in combination with bortezoniib (5-40 nM) or melphalan (50-200 μM) for 24 and/or 48 hours. Drug-induced MM specific cell apoptosis was then compared to untreated and vehicle controls by staining for CD45 FITC (BD), CD38 PerCP-Cy5.5 (BD) and Apo 2.7 PE (Immunotech) to determine apoptosis in CD45−CD38+ MM cells. Samples were subsequently analyzed by FACS. Primary bone marrow stromal cells (BMSC) were also collected from patient BMMC, cells that adhered to the flask after an initial 24 hour culture were cultured with continued selection for adherent cells over several passages. […]

p-STAT3 (pY705) [6] = experiment: STAT3 phosphorylation in HMCL in coculture with bone marrow stromal cells (HS5 or primary BMSC); assay type: cell-based, human; conditions: 15 minutes coculture with BMSC (with or without contact), co-treatment with 2 μM CYT387
Method: as §2

[7] = test system: HMCL (NCI-H929, OCI-MY1 and U266); experiment: Viable cell number by haemocytometer with and without IL-6; assay type: cell-based, human; conditions: CYT387 0.5-1 μM, 10 ng/ml IL-6, 72 hours
Method: as §1

[8] = test system: NCI-H929, OCI-MY1 and U266; experiment: PI FACS dose effect and synergy (Calcusyn) in HMCL; assay type: cell-based, human; conditions: 24 and 48 hours
Method: For the synergy experiments HMCL were treated with CYT387 in combination with bortezomib or melphalan for 24 and 48 hours before being harvested and resuspended in FACS Buffer (0.5% HI FBS in PBS) supplemented with 62.5 ng/ml PI (Sigma-Aldrich). Cells were immediately analysed by FACS. The proportion of PI positive cells was quantitated by subtracting the background death of untreated cells. Single drug treated cells were compared to combination treated cells and synergism was calculated using Calcusyn software (Biosoft).

p-STAT3 (pY705) [9] = experiment: IL-6 induced STAT3 phosphorylation in HMCL (intracellular FACS, western blot); assay type: cell-based, human
Method: HMCL were treated with CYT387 (1 or 2 μM) for 60 minutes and then stimulated with 10 ng/ml IL-6 for 15 minutes. Protein lysates of CYT387 treated and untreated HMCL were made with RIPA Buffer (50 mM Tris.HCl pH 7.4, 150 mM NaCl, 1 mM PMSF, 1 mM EDTA, 5 μg/ml Aprotinin, 5 μg/ml Leupeptin, 1% Triton X-100, 1% Sodium deoxycholate and 0.1% SDS). Briefly cells were incubated in RIPA buffer on ice for 30-60 minutes before being centrifuged at 16,100×g for 20 minutes at 4° C. and the supernatant collected. Protein concentration was quantified using DC Protein Assay (Bio-Rad) as per manufacturer's instructions. Subsequently, 100 μg of each protein lysate was separated by 10% SDS-PAGE and blotted onto nitrocellulose (Hybond ECL, Amersham) using the Bio-Rad semi-dry transfer system. Membranes were blocked with 5% skim milk powder 0.1% Tween-20/PBS for 60 minutes then incubated with mouse monoclonal antiphospho-STAT3 (pY705, Santa Cruz), mouse monoclonal anti-STAT3 (Santa Cruz) or mouse monoclonal anti-a-tubulin (Sigma-Aldrich) for 1-2 hours at room temperature or overnight at 4° C. The blots were washed three times for 15 minutes in 0.1% Tween-20/PBS, then incubated with secondary HRP lagged antibody (swine anti-rabbit Ig HRP (Dako) or rabbit anti-mouse Ig HRP (Dako)) for 1-2 hours at room temperature before washing as above. […]

U266 = experiment: Viable cell number by haemocytometer; assay type: cell-based; conditions: Homo sapiens, U-266; U266, 1 μM, after 72 hours; read-out: inhibition of cell proliferation
Method: as §1

NCI-H929 [10] = experiment: Viable cell number by haemocytometer; assay type: cell-based; conditions: Homo sapiens; NCI-H929, 1 μM, after 72 hours; read-out: inhibition of cell proliferation
Method: as §1

OCI-MY1 = experiment: Viable cell number by haemocytometer; assay type: cell-based; conditions: Homo sapiens; OCI-MY1, 0.5 μM, after 72 hours; read-out: inhibition of cell proliferation
Method: as §1

[11] = CYT387 in combination with bortezomib
[12] = CYT387 in combination with melphalan

## N#C/C(=C/c1ccc(O)c(O)c1)C(=O)NCc1ccccc1 [AG490]
Ras/MAPK; in the hands of others, ref [31]
  IL-6 induced Ras/MAPK activation: no decrease
Ras/MAPK
  IL-6 induced activation of Ras/MAPK: reduce IL-6 induced activation of Ras/MAPK
AKT
  AKT activation: could also abrogate AKT activation

## Cc1cc(Nc2nc(N[C@@H](C)c3ncc(F)cn3)ncc2Cl)n[nH]1 [AZD1480]
Ras/MAPK
  IL-6 induced activation of Ras/MAPK: reduce IL-6 induced activation of Ras/MAPK
Cyclin D2
  Cyclin D2: inhibited Cyclin D2

## N#CCNC(=O)c1ccc(-c2ccnc(Nc3ccc(N4CCOCC4)cc3)n2)cc1 [CYT387, N-(cyanomethyl)-4-[2-[[4-(4-morpholinyl)phenyl]amino]-4-pyrimidinyl]-benzamide]
[1]; 72 hours
  most sensitive HMCL to CYT387 treatment (MTS): NCI-H929 and XG-1 were the most sensitive
[1]; CYT387 0.1-5 μM, 24, 48 and 72 hours, 8 HMCL
  cell proliferation response by MTS assay: Six of 8 HMCL had a time and dose dependent response
p-AKT (pS473)
  p-AKT activation after IL-6 and IGF-1 stimulation: significantly reduced; also recorded: dramatic reduction
NCI-H929 cells
  increase in cells in G2/M compared to untreated or vehicle treated control: more than a two fold increase
[2]; CYT387 1-5 μM, NCI-H929, OCI-MY1 and U266
  cells in the G2/M phase of the cell cycle: marked accumulation of cells in the G2/M phase
[2]; CYT387 treated samples
  polyploid population: additional polyploid population was found
p-ERK1/2 (pT202/pY204)
  IL-6 and IGF-1 induced p-ERK: significantly inhibited; also recorded: significant reduction
[3]
  proportion of apoptotic cells: increased proportion of apoptotic cells was detected in all 3 HMCL
NCI-H929 [4]; NCI-H929, 5 μM CYT387, 24 hours
  cytotoxicity at 5 µM: 21%
NCI-H929 [4]; NCI-H929, 5 μM CYT387, 72 hours
  cytotoxicity at 5 µM: 52%
[5]; [11]
  synergy with bortezomib in primary patient cells: synergy was also observed with bortezomib in some patients/doses
[5]; [12]
  synergy with melphalan in primary patient cells: synergize with melphalan in ⅔ patients
p-STAT3 (pY705) [6]
  amount of p-STAT3 in the HMCL: dramatically reduced the amount of p-STAT3
[7]
  proliferation of HMCL in the presence of IL-6: able to reduce the proliferation of HMCL in culture even in the presence of IL-6
[8]; CYT387 0.5-10 μM
  apoptosis (PI+ cells), dose effect curves: induced apoptosis in 3 HMCL in a time and dose dependent manner
[8]; [11]
  synergy with bortezomib (combination index, Calcusyn): displayed synergism; also recorded: synergistic or nearly additive in 18/24 combinations
[8]; [12]
  synergy with melphalan (combination index, Calcusyn): displayed synergism; also recorded: Synergy is seen
p-STAT3 (pY705) [9]; CYT387 0.5-2 μM for 1 hour, then IL-6 for 15 minutes, NCI-H929, OCI-MY1 and U266, FACS and western blotting
  phosphorylation of STAT3 in IL-6 stimulated samples: inhibited the phosphorylation of STAT3
p-STAT3 (pY705) [9]; western blot, CYT387 then IL-6 stimulation
  Total STAT3 protein: unaffected
U266
  inhibition at 1 µM: 44%
NCI-H929 [10]
  inhibition at 1 µM: 50%
OCI-MY1
  inhibition at 0.5 µM: 50%
